Measurements taken from PMC8151276, “An Integrated Approach toward NanoBRET Tracers for Analysis of GPCR Ligand Engagement” (Molecules, 2021).
Each block holds one compound with its values, some of them ahead of it.

Key:
Type in all cases: binding
CCR2 = biological target: T1, CCR2 (Homo sapiens, UniProt P41597); assay: NanoBRET screen HiBiT-CCR2 in HEK293
T1 construct: purchased Promega (in-house HiBiT-GPCR construct library, NanoBRET)
Method: (§1) Each tracer candidate was screened across the entire library of HiBiT-GPCR constructs using NanoBRET as the detection modality. As depicted in Figure 4A, the specificity of interactions was evaluated through decrease in BRET due to competitive displacement of a bound tracer by excess parental compound. Each tracer was analyzed for binding to each HiBiT-GPCR fusion in the absence and in the presence of competing parental compound. Briefly, HEK293 cells were transfected with HiBiT-GPCR constructs diluted into promoterless DNA to reduce expression and maximize translocation to the cell surface. Each tracer candidate was then screened at concentrations of 1 μM and 0.1 μM across cells expressing these fusions. Cells were treated for 1.5 h with tracer either alone or in the presence of 20 μM competing parental compound (i.e., control). BRET was measured upon addition of purified LgBiT and subsequent complementation with HiBiT genetically fused to a GPCR. The specificity of interactions was assessed through a decrease in BRET signal due to competitive displacement of the bound tracer. To further gauge the robustness of these interactions, the fold response over the control (i.e., BRETtracer/BRETcontrol) was calculated. We chose a 1.5-fold response, which translates to ≥7-fold signal over noise as the minimal threshold required to score an interaction as positive. […]. Below we highlight the screening results obtained for our exemplary fluorescent tracers based on Clozapine, Amitriptyline and AZD1283.
(§2) HiBiT-GPCR DNA constructs were diluted in 10 mM Tris pH 8 to a final concentration of 0.01 μg/μL, arrayed in 96-well plates and stored at −20 °C. For transfection, HEK293 cells were suspended in Opti-MEM (without phenol red) supplemented with 2% fetal bovine serum (Seradigm) and 100 units/mL penicillin–streptomycin (Gibco) at a final concentration of 220,000 cells/mL and dispensed into white 96-well plates at 90 μL/well. Subsequent transfections and screens were carried using an Agilent Bravo Automated Liquid Handling Platform. First, the 96-well HiBiT DNA arrays were diluted 25-fold in Opti-MEM (without serum or phenol red) to a final concentration of 0.0004 μg/μL and 20 μL of the diluted DNAs were transferred into new 96-well plates. Next, promoterless carrier DNA (1 μg/μL) was diluted 25-fold (0.04 μg/μL) and then dispensed into the diluted arrays at 20 μL/well. Following brief mixing, Viafect transfection reagent (Promega) diluted 16-fold into Opti-MEM was dispensed into the plates at 40 μL/well. After mixing by pipetting, plates were incubated for 10 min on the pipetting station deck. The DNA-transfection reagent complexes were then added to plates containing cells. To facilitate the screen, 10 μL of DNA-transfection reagent complexes were added in duplicates to the top 4 and bottom 4 rows, resulting in two identical 48-well arrays per plate. Plates with transfected cells were incubated for 18–20 h at 37 °C/5% CO2. A screen of each tracer across the entire library using two different concentrations requires duplicate plates of transfected cells. Depending on the number of tracers being screened, transfections can be scaled up using the same ratios. The next day, for each tracer, four 20× screening solutions in tracer dilution buffer (Promega) were prepared: two duplicates at final concentration of 20 μM and two duplicates at a final concentration of 2 μM. A competing unmodified compound was added to one of each duplicate at a final concentration of 400 μM. The four resulting solutions were diluted 4-fold in Opti-MEM without serum or phenol red to generate 5× solutions (5 µM and 0.5 µM tracer +/− 100 μM competing compound). To screen the library, a BioTek MultiFlo FX liquid dispenser was used to dispense 22.5 µL of tracer solution to the top 4 rows and 22.5 µL tracer + competing compound solution to the 4 bottom rows. Plates were briefly mixed on an orbital shaker and incubated for 1.5 h at room temperature. […]

CYSLTR2 = biological target: T2, CYSLTR2 (Homo sapiens, UniProt Q9NS75); assay: NanoBRET screen HiBiT-CYSLTR2 in HEK293
T2 construct: purchased Promega (in-house HiBiT-GPCR construct library, NanoBRET)
T2 sequence (Q9NS75 1-346): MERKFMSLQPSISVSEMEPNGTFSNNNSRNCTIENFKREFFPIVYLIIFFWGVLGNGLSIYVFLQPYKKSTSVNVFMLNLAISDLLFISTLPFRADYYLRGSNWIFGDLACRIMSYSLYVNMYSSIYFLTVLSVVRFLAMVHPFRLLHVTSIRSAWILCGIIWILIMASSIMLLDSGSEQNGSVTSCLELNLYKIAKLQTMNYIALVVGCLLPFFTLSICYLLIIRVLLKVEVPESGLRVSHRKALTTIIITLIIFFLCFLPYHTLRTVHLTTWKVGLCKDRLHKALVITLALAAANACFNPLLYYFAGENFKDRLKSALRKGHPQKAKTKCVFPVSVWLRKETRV
Method: as §1, §2

PTGDR2 = biological target: T3, PTGDR2 (Homo sapiens, UniProt Q9Y5Y4); assay: NanoBRET screen HiBiT-PTGDR2 in HEK293
T3 construct: purchased Promega (in-house HiBiT-GPCR construct library, NanoBRET)
T3 sequence (Q9Y5Y4 1-395): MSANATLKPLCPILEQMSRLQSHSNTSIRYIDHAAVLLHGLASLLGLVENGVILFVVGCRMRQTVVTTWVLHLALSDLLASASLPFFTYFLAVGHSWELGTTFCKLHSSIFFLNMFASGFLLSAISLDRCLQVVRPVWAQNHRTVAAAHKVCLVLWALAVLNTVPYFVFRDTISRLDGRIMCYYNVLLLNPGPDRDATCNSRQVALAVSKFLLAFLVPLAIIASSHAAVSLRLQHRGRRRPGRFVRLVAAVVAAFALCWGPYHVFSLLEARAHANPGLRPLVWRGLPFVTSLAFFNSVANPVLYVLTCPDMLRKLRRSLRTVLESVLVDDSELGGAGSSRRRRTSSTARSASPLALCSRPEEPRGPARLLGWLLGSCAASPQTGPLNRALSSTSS
Method: as §1, §2

P2RY1 = biological target: T4, P2RY1 (Homo sapiens, UniProt P47900); assay: NanoBRET screen HiBiT-P2RY1 in HEK293
T4 construct: purchased Promega (in-house HiBiT-GPCR construct library, NanoBRET)
Method: as §1, §2

CCKBR = biological target: T5, CCKBR (Homo sapiens, UniProt P32239); assay: NanoBRET screen HiBiT-CCKBR in HEK293
T5 construct: purchased Promega (in-house HiBiT-GPCR construct library, NanoBRET)
T5 sequence (P32239 1-447): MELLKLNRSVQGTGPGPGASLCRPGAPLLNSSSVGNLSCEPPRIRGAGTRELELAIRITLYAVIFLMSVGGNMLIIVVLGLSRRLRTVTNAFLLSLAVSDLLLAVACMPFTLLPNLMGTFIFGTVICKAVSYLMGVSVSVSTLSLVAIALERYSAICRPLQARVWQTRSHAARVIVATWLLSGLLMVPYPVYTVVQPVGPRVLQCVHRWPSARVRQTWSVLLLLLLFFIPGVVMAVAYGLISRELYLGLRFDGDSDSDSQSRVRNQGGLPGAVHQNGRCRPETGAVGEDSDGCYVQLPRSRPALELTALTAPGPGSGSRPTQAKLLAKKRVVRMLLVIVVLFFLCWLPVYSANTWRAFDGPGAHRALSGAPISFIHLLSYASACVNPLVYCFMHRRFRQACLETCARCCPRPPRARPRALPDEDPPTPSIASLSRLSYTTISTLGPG
Method: as §1, §2

T1 sequence (P41597 whole entry): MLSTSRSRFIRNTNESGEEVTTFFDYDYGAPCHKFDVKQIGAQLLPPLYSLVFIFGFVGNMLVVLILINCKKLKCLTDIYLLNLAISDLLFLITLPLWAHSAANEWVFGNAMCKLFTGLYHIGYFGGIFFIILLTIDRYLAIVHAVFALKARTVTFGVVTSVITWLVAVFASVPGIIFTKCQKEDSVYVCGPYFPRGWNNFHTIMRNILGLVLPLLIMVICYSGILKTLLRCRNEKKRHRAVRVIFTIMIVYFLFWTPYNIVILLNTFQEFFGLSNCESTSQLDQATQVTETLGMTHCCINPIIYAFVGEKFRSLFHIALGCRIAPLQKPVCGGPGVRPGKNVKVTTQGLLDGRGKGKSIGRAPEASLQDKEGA
T4 sequence (P47900 whole entry): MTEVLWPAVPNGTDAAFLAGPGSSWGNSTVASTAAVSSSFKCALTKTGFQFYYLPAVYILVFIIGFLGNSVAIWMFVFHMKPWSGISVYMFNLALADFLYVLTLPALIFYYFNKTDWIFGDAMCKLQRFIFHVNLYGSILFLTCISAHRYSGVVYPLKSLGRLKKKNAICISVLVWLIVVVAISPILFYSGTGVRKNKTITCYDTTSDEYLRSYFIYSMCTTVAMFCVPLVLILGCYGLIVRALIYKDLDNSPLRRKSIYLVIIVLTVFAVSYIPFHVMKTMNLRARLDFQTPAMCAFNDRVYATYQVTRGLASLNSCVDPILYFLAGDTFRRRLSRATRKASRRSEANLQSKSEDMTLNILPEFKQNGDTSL

NanoBRET Fold Response (CCR2; 0.1μM tracer): 1.06
NanoBRET Fold Response (CCR2; 1μM tracer): 0.97
NanoBRET Fold Response (CYSLTR2; 0.1μM tracer): 1.37
NanoBRET Fold Response (CYSLTR2; 1μM tracer): 0.46
NanoBRET Fold Response (PTGDR2; 0.1μM tracer): 1.08
NanoBRET Fold Response (PTGDR2; 1μM tracer): 1.09
NanoBRET Fold Response (P2RY1; 0.1μM tracer): 0.99
NanoBRET Fold Response (P2RY1; 1μM tracer): 0.99
NanoBRET Fold Response (CCKBR; 0.1μM tracer): 1.01
NanoBRET Fold Response (CCKBR; 1μM tracer): 1.02
Compound: COc1ccc2c(n1)c(CCNC(C)=O)cn2CCNC(=O)CCc1ccc2n1[B-](F)(F)[N+]1=C(c3ccc[nH]3)C=CC1=C2 [Azamelatonin-1-NB590]

Compound: O=C(CCc1ccc2n1[B-](F)(F)[N+]1=C(c3ccc[nH]3)C=CC1=C2)NCc1ccc(C(=O)NCCOCCOCCNCC(O)COc2cccc3ccccc23)cc1 (stereo not drawn) [Propranolol-3-NB590]
NanoBRET Fold Response (CCR2; CCR2, 0.1μM): 0.99
NanoBRET Fold Response (CCR2; CCR2, 1μM): 1.19
NanoBRET Fold Response (CYSLTR2; CYSLTR2, 0.1μM): 0.54
NanoBRET Fold Response (CYSLTR2; CYSLTR2, 1μM): 1.01
NanoBRET Fold Response (PTGDR2; PTGDR2, 0.1μM): 0.96
NanoBRET Fold Response (PTGDR2; PTGDR2, 1μM): 1.06
NanoBRET Fold Response (P2RY1; P2RY1, 0.1μM): 1.02
NanoBRET Fold Response (P2RY1; P2RY1, 1μM): 0.97
NanoBRET Fold Response (CCKBR; CCKBR, 0.1μM): 1.05
NanoBRET Fold Response (CCKBR; CCKBR, 1μM): 0.91

NanoBRET Fold Response (CCR2; CCR2, 0.1μM tracer): 1.06
NanoBRET Fold Response (CCR2; CCR2, 1μM tracer): 0.73
NanoBRET Fold Response (CYSLTR2; CYSLTR2, 0.1μM tracer): 0.99
NanoBRET Fold Response (CYSLTR2; CYSLTR2, 1μM tracer): 1.03
NanoBRET Fold Response (PTGDR2; PTGDR2, 0.1μM tracer): 1.01
NanoBRET Fold Response (PTGDR2; PTGDR2, 1μM tracer): 1.00
NanoBRET Fold Response (P2RY1; P2RY1, 0.1μM tracer): 1.01
NanoBRET Fold Response (P2RY1; P2RY1, 1μM tracer): 0.94
NanoBRET Fold Response (CCKBR; CCKBR, 0.1μM tracer): 1.01
NanoBRET Fold Response (CCKBR; CCKBR, 1μM tracer): 1.01
Compound: O=C(CCOCCOCCOCCOCCNC(=O)CCc1ccc2n1[B-](F)(F)[N+]1=C(c3ccc[nH]3)C=CC1=C2)NCCCN1CCN(C2=Nc3cc(Cl)ccc3Nc3ccccc32)CC1 [Clozapine-a-2-NB590]
